Results as given in patent US9102674B2, “Substituted naphthyridine and quinoline compounds as MAO inhibitors” (DART NEUROSCIENCE (CAYMAN) LTD., priority 2013, dated 2015).

Target: T1, Human recombinant MAO-B (Homo sapiens, UniProt P27338)
T1 construct: host or cells: insect cells
T1 sequence (P27338 1-520): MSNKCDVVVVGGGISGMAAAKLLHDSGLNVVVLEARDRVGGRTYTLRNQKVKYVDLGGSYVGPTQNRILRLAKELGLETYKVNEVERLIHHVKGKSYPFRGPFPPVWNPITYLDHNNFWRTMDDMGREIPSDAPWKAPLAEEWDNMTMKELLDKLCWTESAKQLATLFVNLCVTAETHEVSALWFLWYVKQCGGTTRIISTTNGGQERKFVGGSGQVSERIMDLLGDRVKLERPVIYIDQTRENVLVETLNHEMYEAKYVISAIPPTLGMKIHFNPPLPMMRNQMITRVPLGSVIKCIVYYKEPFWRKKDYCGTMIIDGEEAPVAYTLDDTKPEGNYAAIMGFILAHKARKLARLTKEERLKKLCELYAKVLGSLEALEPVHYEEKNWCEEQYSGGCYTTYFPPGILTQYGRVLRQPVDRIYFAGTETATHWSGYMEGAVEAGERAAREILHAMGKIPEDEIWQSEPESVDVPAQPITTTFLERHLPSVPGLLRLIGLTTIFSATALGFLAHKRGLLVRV
Assay: MAO-B enzymatic assay (fluorometric, kynuramine)
Format: biochemical
Conditions: human recombinant MAO-B expressed in insect cells; kynuramine substrate; values given as bins; read-out: MAO-B (pEC50) (converted)
Description: The MAO enzymatic assay was performed according to the fluorometric method described by Matsumoto and colleagues (Matsumoto et al., Clin. Biochem. 1985, 18, 126-129) with the following modifications. Human recombinant MAO-A and MAO-B expressed in insect cells were used. For both assays, test compound and/or vehicle were preincubated with purified enzyme in phosphate buffer pH 7.4 for 15 minutes at 37° C. The reaction was initiated by addition of […] kynuramine. Following a 60 minute incubation period, the reaction was terminated by the addition of 6 N NaOH. The amount of 4-hydroxyquinoline that formed was determined by spectrofluorimetrically at 325 nm/465 nm.
Results were converted to percent inhibition, and the EC50 (M) for each reaction was determined using the XLfit program from IDBS (ID Business Solutions Ltd., 2 Occam Court, Surrey Research Park, Guildford, Surrey, GU2 7QB UK). The EC50 represents the concentration of a compound where 50% of its maximal effect is observed. The pEC50 is defined as the negative logarithm of the EC50; a higher pEC50 value therefore corresponds to higher potency in the assay.
Representative compounds of the invention were evaluated in the MAO-B enzymatic assay. Typically, the compounds of the invention show MAO-B inhibitory properties at a concentration of 0.1 to 10 μM, typically at 5-100%.
As depicted in the following Table, these inhibitory properties were mirrored by pEC50 values ranging from 5 (meaning 10^−5 M or 10 μM) to greater than 7 (meaning less than 10^−7 M or 0.1 μM).

Structure (SMILES)	EC50 [nM]
CCOC(=O)c1cc2ccc(OCc3cccc(Cl)c3)cc2nc1C [Example 20, Ethyl 7-((3-chlorobenzyl)oxy)-2-methylquinoline-3-carboxylate]	< 100
CCOC(=O)c1cc2ccc(OCc3cccc(F)c3)cc2nc1C [Example 21, Ethyl 7-((3-fluorobenzyl)oxy)-2-methylquinoline-3-carboxylate]	< 100
CCOC(=O)c1cc2ccc(OCc3ccc(F)cc3)cc2nc1C [Example 22, Ethyl 7-((4-fluorobenzyl)oxy)-2-methylquinoline-3-carboxylate]	< 100
CC(C)(O)c1cnc2cc(OCc3ccc(F)cc3)ccc2c1 [Example 27, 2-(7-((4-Fluorobenzyl)oxy)quinolin-3-yl)propan-2-ol]	< 100
CC(C)(O)c1cnc2cc(OCc3cccc(Cl)c3)ccc2c1 [Example 28, 2-(7-((3-Chlorobenzyl)oxy)quinolin-3-yl)propan-2-ol]	< 100
CC(C)(O)c1cnc2cc(OCc3cc(F)cc(F)c3)ccc2c1 [Example 29, 2-(7-((3,5-Difluorobenzyl)oxy)quinolin-3-yl)propan-2-ol]	< 100
CC(C)(O)c1cnc2cc(OCc3cc(F)c(F)c(F)c3)ccc2c1 [Example 30, 2-(7-((3,4,5-Trifluorobenzyl)oxy)quinolin-3-yl)propan-2-ol]	< 100
Cc1nc2cc(OCc3ccc(F)cc3)ccc2cc1C(C)(C)O [Example 31, 2-(7-((4-Fluorobenzyl)oxy)-2-methylquinolin-3-yl)propan-2-ol]	< 100
Cc1nc2cc(OCc3cccc(Cl)c3)ccc2cc1C(C)(C)O [Example 32, 2-(7-((3-Chlorobenzyl)oxy)-2-methylquinolin-3-yl)propan-2-ol]	< 100
Cc1nc2cc(OCc3ccc(F)c(Cl)c3)ccc2cc1C(C)(C)O [Example 33, 2-(7-((3-Chloro-4-fluorobenzyl)oxy)-2-methylquinolin-3-yl)propan-2-ol]	< 100
Cc1nc2cc(OCc3cccc(F)c3)ccc2cc1C(C)(C)O [Example 34, 2-(7-((3-Fluorobenzyl)oxy)-2-methylquinolin-3-yl)propan-2-ol]	< 100
OCc1cnc2cc(OCc3cccc(Cl)c3)ccc2c1 [Example 35, (7-((3-Chlorobenzyl)oxy)quinolin-3-yl)methanol]	< 100
OCc1cnc2cc(OCc3cc(F)cc(F)c3)ccc2c1 [Example 36, (7-((3,5-Difluorobenzyl)oxy)quinolin-3-yl)methanol]	< 100
OCc1cnc2cc(OCc3cc(F)c(F)c(F)c3)ccc2c1 [Example 37, (7-((3,4,5-Trifluorobenzyl)oxy)quinolin-3-yl)methanol]	< 100
CC(C)(O)c1cnc2cc(OCCc3cccc(F)c3)ccc2c1 [Example 38, 2-(7-(3-Fluorophenethoxy)quinolin-3-yl)propan-2-ol]	100 to 1000

Results, then the compound that gave them:

EC50 [nM]	Structure (SMILES)
< 100	CCOC(=O)c1cnc2cc(OCc3ccc(Cl)cc3)ccc2c1 [Example 1, Ethyl 7-[(4-chlorophenyl)methoxy]quinoline-3-carboxylate]
< 100	CCOC(=O)c1cnc2cc(OCc3ccc(F)cc3)ccc2c1 [Example 2, Ethyl 7-[(4-fluorophenyl)methoxy]quinoline-3-carboxylate]
< 100	CCOC(=O)c1cnc2cc(OCc3cccc(Cl)c3)ccc2c1 [Example 3, Ethyl 7-[(3-chlorophenyl)methoxy]quinoline-3-carboxylate]
< 100	CCOC(=O)c1cnc2cc(OCc3cccc(F)c3)ccc2c1 [Example 4, Ethyl 7-[(3-fluorophenyl)methoxy]quinoline-3-carboxylate]
< 100	CCOC(=O)c1cnc2cc(OCc3cccc(C(F)(F)F)c3)ccc2c1 [Example 5, Ethyl 7-((3-(trifluoromethyl)benzyl)oxy)quinoline-3-carboxylate]
100 to 1000	CCOC(=O)c1cnc2cc(OCc3ccc(C(F)(F)F)cc3)ccc2c1 [Example 6, Ethyl 7-((4-(trifluoromethyl)benzyl)oxy)quinoline-3-carboxylate]
< 100	CCOC(=O)c1cnc2cc(OCc3cccc(C)c3)ccc2c1 [Example 7, Ethyl 7-((3-methylbenzyl)oxy)quinoline-3-carboxylate]
100 to 1000	CCOC(=O)c1cnc2cc(OCc3ccc(C)cc3)ccc2c1 [Example 8, Ethyl 7-((4-methylbenzyl)oxy)quinoline-3-carboxylate]
< 100	CCOC(=O)c1cnc2cc(OCc3cccc(OC)c3)ccc2c1 [Example 9, Ethyl 7-((3-methoxybenzyl)oxy)quinoline-3-carboxylate]
100 to 1000	CCOC(=O)c1cnc2cc(OCc3ccc(OC)cc3)ccc2c1 [Example 10, Ethyl 7-((4-methoxybenzyl)oxy)quinoline-3-carboxylate]
100 to 1000	CCOC(=O)c1cnc2cc(OCc3ccc([N+](=O)[O-])cc3)ccc2c1 [Example 11, Ethyl 7-((4-nitrobenzyl)oxy)quinoline-3-carboxylate]
< 100	CCOC(=O)c1cnc2cc(OCc3ccc(F)c(C(F)(F)F)c3)ccc2c1 [Example 12, Ethyl 7-((4-fluoro-3-(trifluoromethyl)benzyl)oxy)quinoline-3-carboxylate]
< 100	CCOC(=O)c1cnc2cc(OCc3cc(F)cc(C(F)(F)F)c3)ccc2c1 [Example 13, Ethyl 7-((3-fluoro-5-(trifluoromethyl)benzyl)oxy)quinoline-3-carboxylate]
< 100	CCOC(=O)c1cnc2cc(OCc3ccc(F)c(F)c3)ccc2c1 [Example 14, Ethyl 7-((3,4-difluorobenzyl)oxy)quinoline-3-carboxylate]
< 100	CCOC(=O)c1cnc2cc(OCc3cc(F)cc(F)c3)ccc2c1 [Example 15, Ethyl 7-((3,5-difluorobenzyl)oxy)quinoline-3-carboxylate]
< 100	CCOC(=O)c1cnc2cc(OCc3cc(F)c(F)c(F)c3)ccc2c1 [Example 16, Ethyl 7-((3,4,5-trifluorobenzyl)oxy)quinoline-3-carboxylate]
< 100	CCOC(=O)c1cnc2cc(OCc3ccc(F)c(Cl)c3)ccc2c1 [Example 17, Ethyl 7-((3-chloro-4-fluorobenzyl)oxy)quinoline-3-carboxylate]
< 100	CCOC(=O)c1cnc2cc(OCc3cccc([N+](=O)[O-])c3)ccc2c1 [Example 18, Ethyl 7-((3-nitrobenzyl)oxy)quinoline-3-carboxylate]
< 100	CCOC(=O)c1cnc2cc(OCc3cc(F)cc(Cl)c3)ccc2c1 [Example 19, Ethyl 7-((3-chloro-5-fluorobenzyl)oxy)quinoline-3-carboxylate]
< 100	CCOC(=O)c1cc2ccc(OCc3ccc(F)c(Cl)c3)cc2nc1C [Example 23, Ethyl 7-((3-chloro-4-fluorobenzyl)oxy)-2-methylquinoline-3-carboxylate]
< 100	CCOC(=O)c1cnc2cc(OCCc3cccc(F)c3)ccc2c1 [Example 24, Ethyl 7-(3-fluorophenethoxy)quinoline-3-carboxylate]
100 to 1000	CCOC(=O)c1cnc2cc(OCCc3cccc(Cl)c3)ccc2c1 [Example 25, Ethyl 7-(3-chlorophenethoxy)quinoline-3-carboxylate]
< 100	COC(=O)c1cnc2cc(OCc3cccc(Cl)c3)ccc2c1 [Example 26, Methyl 7-((3-chlorobenzyl)oxy)quinoline-3-carboxylate]
